What was measured:
SIRT1 = target: T1, SIRT1 (Homo sapiens, UniProt Q96EB6); experiment: Fluorescence polarization or mass spectrometry based assay to identify modulators of SIRT1 activity; assay type: biochemical; conditions: activation of SIRT1 (Table 3); read-out: ED50 (the source's name);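 also: deacetylation of a fluorophore-tagged p53-derived acetyl peptide by SIRT1, detected as fluorescence polarization after trypsin cleavage and streptavidin binding, compounds tested at 11 doses from 0.7 to 100 µM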
T1 sequence (Q96EB6 1-747): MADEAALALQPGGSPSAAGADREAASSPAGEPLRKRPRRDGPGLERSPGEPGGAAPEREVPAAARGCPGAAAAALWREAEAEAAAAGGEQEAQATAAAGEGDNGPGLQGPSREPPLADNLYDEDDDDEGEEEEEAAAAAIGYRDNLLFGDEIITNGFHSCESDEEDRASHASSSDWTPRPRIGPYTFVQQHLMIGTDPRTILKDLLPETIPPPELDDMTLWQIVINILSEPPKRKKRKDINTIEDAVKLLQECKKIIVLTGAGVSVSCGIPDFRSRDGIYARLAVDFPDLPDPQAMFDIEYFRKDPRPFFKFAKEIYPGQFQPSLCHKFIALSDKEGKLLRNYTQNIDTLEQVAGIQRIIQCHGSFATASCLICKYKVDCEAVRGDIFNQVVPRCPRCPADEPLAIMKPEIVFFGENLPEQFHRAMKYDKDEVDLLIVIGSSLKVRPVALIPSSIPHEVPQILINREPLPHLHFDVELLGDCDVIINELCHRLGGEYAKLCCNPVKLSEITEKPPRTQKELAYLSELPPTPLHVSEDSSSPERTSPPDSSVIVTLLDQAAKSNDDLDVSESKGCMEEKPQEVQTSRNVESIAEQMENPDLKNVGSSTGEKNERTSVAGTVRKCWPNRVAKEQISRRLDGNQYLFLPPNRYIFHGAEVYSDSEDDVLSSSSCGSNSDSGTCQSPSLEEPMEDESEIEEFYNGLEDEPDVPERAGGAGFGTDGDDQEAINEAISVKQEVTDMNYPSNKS

human SIRT3 = target: T2, human SIRT3 (Homo sapiens, UniProt Q9NTG7); experiment: Fluorescence polarization assay to identify modulators of SIRT3 activity; assay type: biochemical; conditions: for EC50: activation of SIRT3 (Table 5), read-out: ED50 (the source's name); for IC50: inhibition of SIRT3 (Table 6)
T2 sequence (Q9NTG7 102-399): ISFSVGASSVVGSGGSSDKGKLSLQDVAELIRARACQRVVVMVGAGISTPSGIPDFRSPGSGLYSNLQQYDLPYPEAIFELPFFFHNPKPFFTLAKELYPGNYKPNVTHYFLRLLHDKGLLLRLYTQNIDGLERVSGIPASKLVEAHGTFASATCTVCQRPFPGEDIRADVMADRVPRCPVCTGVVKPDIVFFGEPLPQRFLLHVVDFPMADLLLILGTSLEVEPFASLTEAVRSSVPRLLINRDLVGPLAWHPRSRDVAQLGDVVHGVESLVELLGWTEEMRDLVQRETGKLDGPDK
Source text: A fluorescence polarization assay was used to identify modulators of SIRT3 activity. The same assay may be used to identify modulators of any sirtuin protein. The assay utilizes a peptide substrate based on a fragment of Histone H4, a known sirtuin deacetylation target. The substrate contains a peptide having 14 amino acid residues as follows: Biotin-GASSHSK(Ac)VLK(MR121) (SEQ ID NO: 3) wherein K(Ac) is an acetylated lysine residue. The peptide is labeled with the fluorophore MR121 (excitation 635 nm/emission 680 nm) at the C-terminus and biotin at the N-terminus.
The peptide substrate is exposed to a sirtuin protein in the presence of NAD^+ to allow deacetylation of the substrate and render it sensitive to cleavage by trypsin. Trypsin is then added and the reaction is carried to completion (i.e., the deacetylated substrate is cleaved) releasing the MR121 fragment. Streptavidin is then added to the reaction where it can bind both the uncleaved substrate (i.e., any remaining acetylated substrate) and the non-fluorescent portion of the cleaved peptide substrate (i.e., the biotin containing fragment). The fluorescence polarization signal observed for the full length peptide substrate bound to streptavidin is higher than the fluorescence polarization signal observed for the released MR121 C-terminal fragment. Therefore, the fluorescence polarization obtained is inversely proportional to the level of deacetylation (e.g., the signal is inversely proportional to the activity of the sirtuin protein). Results are read on a microplate fluorescence polarization reader (Molecular Devices Spectramax MD) with appropriate excitation and emission filters.
The fluorescence polarization assays may be conducted as follows: 0.5 μM peptide substrate and 50 μM βNAD^+ is incubated with 2 nM of SIRT3 for 60 minutes at 37° C. in a reaction buffer (25 mM Tris-acetate pH8, 137 mM Na—Ac, 2.7 mM K—Ac, 1 mM Mg—Ac, 0.1% Pluronic F127, 10 mM CaCl2, 1 mM TCEP, 0.025% BSA). Test compounds are solubilized in DMSO and are added to the reaction at 11 concentrations ranging from 0.7 μM to 100 μM. The SIRT3 protein used in the assays corresponded to amino acid residues 102-399 of human SIRT3 with an N-terminal His-tag. The protein was overexpressed in E. coli and purified on a nickel chelate column using standard techniques. After the 60 minute incubation with SIRT3, nicotinamide is added to the reaction to a final concentration of 3 mM to stop the deacetylation reaction and 0.5 μg/mL of trypsin is added to cleave the deacetylated substrate. The reaction is incubated for 30 minutes at 37° C. in the presence of 1 mM streptavidin. Fluorescent polarization is determined at excitation (650 nm) and emissions (680 nm) wavelengths. The level of activity of the sirtuin protein in the presence of the various concentrations of test compound are then determined and may be compared to the level of activity of the sirtuin protein in the absence of the test compound, and/or the level of activity of the sirtuin proteins in the negative control (e.g., level of inhibition) and positive control (e.g., level of activation) described below.
A control for activation of sirtuin activity is conducted using 0.5 μg/mL of sirtuin protein to reach baseline deacetylation of the substrate (e.g., to determine normalized sirtuin activity).

| Compound | EC50 (SIRT1) | EC50 (human SIRT3) | IC50 (human SIRT3) |
| --- | --- | --- | --- |
| Cc1csc(NC(=O)CSCC(=O)O)c1-c1nc2ccccc2s1 [Compound 5] | < 50 µM | 101 to 150 µM |  |
| Nc1nc2ccc(-c3nc4ccccc4[nH]3)cc2s1 [Compound 14] | 101 to 150 µM | 101 to 150 µM |  |
| CC(NC(=O)c1cccn2c(NCC3CCCO3)c(-c3ccc(Cl)cc3)nc12)C(=O)NCCC#N (centres unmarked) [Compound 43] | < 50 µM | 51 to 100 µM |  |
| CC(NC(=O)c1cccn2c(NCC3CCCO3)c(-c3ccc(N(C)C)cc3)nc12)C(=O)NCCC#N (centres unmarked) [Compound 45] | 51 to 100 µM | > 150 µM |  |
| COc1ccc(-c2nc3c(C(=O)NC(CC(=O)O)c4cccc(C)c4)cccn3c2Nc2c(C)cccc2C)cc1[N+](=O)[O-] (centres unmarked) [Compound 67] |  | > 150 µM |  |
| CCCCNc1c(-c2ccc(F)cc2)nc2c(C(=O)NC(CC(=O)O)c3cccc([N+](=O)[O-])c3)cccn12 (centres unmarked) [Compound 71] |  | 51 to 100 µM |  |
| CCCCNc1c(-c2ccc(C#N)cc2)nc2c(C(=O)NC(CC(=O)O)c3cccc([N+](=O)[O-])c3)cccn12 (centres unmarked) [Compound 72] |  | 51 to 100 µM |  |
| COc1ccc(-c2nc3c(C(=O)NC(CC(=O)O)c4cccc([N+](=O)[O-])c4)cccn3c2NCc2ccccc2)cc1[N+](=O)[O-] (centres unmarked) [Compound 73] |  | 51 to 100 µM |  |
| Cc1cccc(C)c1Nc1c(-c2ccc(C#N)cc2)nc2c(C(=O)NC(CC(=O)O)c3cccc([N+](=O)[O-])c3)cccn12 (centres unmarked) [Compound 74] |  | > 150 µM |  |
| Nc1ccc(-c2nc3ccc(-c4nc5ccc(N)cc5[nH]4)cc3[nH]2)cc1 [Compound 83] |  | > 150 µM |  |
| Nc1ccc(C(=O)Nc2nc3cc4sc(NC(=O)c5ccc(N)cc5)nc4cc3s2)cc1 [Compound 86] |  |  | 51 to 100 µM |
| Cc1ccccc1C(=O)N1CCN(C(=O)c2cccn3c(NCc4ccccc4)c(C(C)C)nc23)CC1 [Compound 87] |  |  | 101 to 150 µM |

The remaining lines, values ahead:

| EC50 (SIRT1) | EC50 (human SIRT3) | IC50 (human SIRT3) | Compound |
| --- | --- | --- | --- |
| > 150 µM | > 150 µM |  | COc1ccc(-c2nc3c(C(=O)NC(CC(=O)O)C4CCCCC4)cccn3c2NC(C)(C)C)cc1[N+](=O)[O-] (centres unmarked) [Compound 29] |
| 51 to 100 µM | < 50 µM |  | N#Cc1ccc(-c2nc3c(C(=O)NC(CC(=O)O)C4CCCCC4)cccn3c2NCc2ccccc2)cc1 (centres unmarked) [Compound 32] |
| 51 to 100 µM | 101 to 150 µM |  | CC(=O)Nc1ccc(-c2nc3c(C(=O)NC(CC(=O)O)C4CCCCC4)cccn3c2NCc2ccccc2)cc1 (centres unmarked) [Compound 37] |
|  | 51 to 100 µM |  | COc1cccc(-c2nc3c(C(=O)NC(CC(=O)O)C4CCCCC4)cccn3c2NCc2ccccc2)c1 (centres unmarked) [Compound 69] |
|  | > 150 µM |  | Cc1cccc(C)c1Nc1c(-c2ccc(C#N)cc2)nc2c(C(=O)NC(CC(=O)O)C3CCCCC3)cccn12 (centres unmarked) [Compound 70] |
|  | 51 to 100 µM |  | CCCCNc1c(-c2ccc(OC)c([N+](=O)[O-])c2)nc2c(C(=O)NC(C)C(=O)O)cccn12 (centres unmarked) [Compound 75] |
|  | < 50 µM |  | COc1ccc(-c2nc3c(C(=O)NC(C)C(=O)O)cccn3c2NCc2ccccc2)cc1[N+](=O)[O-] (centres unmarked) [Compound 76] |
|  | 101 to 150 µM |  | CC(C)(C)Nc1c(-c2ccc(F)cc2)nc2c(C(=O)NC(CC(=O)O)C3CCCCC3)cccn12 (centres unmarked) [Compound 78] |
|  | 51 to 100 µM |  | O=C(O)CC(NC(=O)c1cccn2c(NCc3ccccc3)c(-c3ccc(F)cc3)nc12)C1CCCCC1 (centres unmarked) [Compound 79] |
|  | 51 to 100 µM |  | COc1ccc(-c2nc3cc(C(=O)NC(CC(=O)O)C4CCCCC4)ccn3c2NC2CCCCC2)cc1OC (centres unmarked) [Compound 80] |
|  | 51 to 100 µM |  | Cc1ccc(C(CC(=O)O)NC(=O)c2ccn3c(NC4CCCCC4)c(-c4ccc(C#N)cc4)nc3c2)cc1 (centres unmarked) [Compound 81] |
|  |  | < 50 µM | CN(C)c1ccc(-c2nc3ccc(C(=O)NCC(=O)NCC4CC4)cn3c2NC2CCCCC2)cc1 [Compound 88] |
|  |  | 101 to 150 µM | Cc1cc(C(=O)Nc2ccc(-c3nc4ccc(C(=O)NCCCN5CCCC5=O)cn4c3NC3CCCCC3)cc2)no1 [Compound 89] |

Source: US7998974B2, “Fused heterocyclic compounds and their use as sirtuin modulators” (Sirtris Pharmaceuticals, Inc., priority 2005, dated 2011)
